Results: the CheMixHub ionic liquid set

Experiment: xn = mol fraction of the nth substance listed

CC[n+]1ccn(C)c1.COP(=O)([O-])OC + CO
101 kPa
Conditions | viscosity [mPa·s]
298.15 K, x2 = 0.598 | 20.62
318.15 K, x2 = 0.799 | 3.265
328.15 K, x2 = 0.399 | 20.82
333.15 K, x2 = 0.399 | 18.06

CC[n+]1ccn(C)c1.F[B-](F)(F)F + CC(=O)c1ccccc1
Conditions | viscosity [mPa·s]
293.15 K, 100 kPa, x2 = 0 | 42.7

CCCC[n+]1ccc(C)cc1.N#C[S-] + O
101 kPa
Conditions | viscosity [mPa·s]
298.15 K, x2 = 0.0564 | 74.9
298.15 K, x2 = 0.9714 | 1.58
308.15 K, x2 = 0.6364 | 10.02
308.15 K, x2 = 0.9714 | 1.24
318.15 K, x1 = 0.0076 | 0.73
318.15 K, x2 = 0 | 33.9
318.15 K, x2 = 0.9714 | 1.01
328.15 K, x2 = 0.9028 | 1.71
328.15 K, x2 = 0.957 | 1.01
328.15 K, x2 = 0.9714 | 0.84
338.15 K, x2 = 0 | 17.3
338.15 K, x2 = 0.1655 | 12.9
338.15 K, x2 = 0.3797 | 8.38
338.15 K, x2 = 0.4628 | 7.17
338.15 K, x2 = 0.5669 | 5.54
338.15 K, x2 = 0.7623 | 2.94
338.15 K, x2 = 0.9714 | 0.73
348.15 K, x2 = 0.1655 | 9.89
348.15 K, x2 = 0.5669 | 4.45
348.15 K, x2 = 0.957 | 0.75

CC[n+]1ccn(C)c1.O=S(=O)([N-]S(=O)(=O)C(F)(F)F)C(F)(F)F + CO
100 kPa
Conditions | viscosity [mPa·s]
298.15 K, x2 = 0.5988 | 6.44
308.15 K, x2 = 0.4005 | 9.17
308.15 K, x2 = 0.8978 | 1.32
313.15 K, x2 = 0.4005 | 8.11
313.15 K, x2 = 0.5088 | 6.09
313.15 K, x2 = 0.6909 | 3.44
318.15 K, x2 = 0.1965 | 11.67
323.15 K, x2 = 0.7961 | 1.82

CCCC[n+]1ccn(C)c1.CCOS(=O)(=O)[O-] + CC[n+]1ccn(C)c1.O=S(=O)([N-]S(=O)(=O)C(F)(F)F)C(F)(F)F
298.15 K, 100 kPa
Conditions | viscosity [mPa·s]
x2 = 0 | 255.2
x2 = 0.5013 | 87.6
x2 = 0.7113 | 57.11

CC[n+]1ccn(C)c1.F[B-](F)(F)F + CC[n+]1ccn(C)c1.O=S(=O)([N-]S(=O)(=O)C(F)(F)F)C(F)(F)F
100 kPa, x2 = 0
Conditions | electrical conductivity [S/m] | viscosity [mPa·s]
243.15 K | 0.026 | –
248.15 K | 0.043 | –
253.15 K | 0.066 | 308
258.15 K | 0.096 | –
263.15 K | 0.135 | 152
268.15 K | 0.184 | –
273.15 K | 0.243 | 85.2
278.15 K | 0.313 | –
283.15 K | 0.395 | 52.4
288.15 K | 0.488 | –
293.15 K | 0.594 | 34.6
298.15 K | 0.712 | –
303.15 K | – | 24.2
313.15 K | – | 17.8
323.15 K | – | 13.5
333.15 K | – | 10.6
